Source: patent publication US8633201B2, “Thienopyrimidines having Mnk1/Mnk2 inhibiting activity for pharmaceutical compositions” (Boehringer Ingelheim International GmbH, priority 2006, dated 2014)

What was measured:
[1] = system: cell culture cells, transfected with Mnk2 (Mnk2a or Mnk2b) or Mnk1; conditions: addition to cell culture cells transfected with Mnk2 (Mnk2a or Mnk2b) or Mnk1; cited from earlier work
db/db mice = test: 14-day oral treatment study in db/db mice (body weight, blood glucose, plasma and pancreas parameters); assay type: in vivo; conditions: oral gavage
Method: BKS.Cg-m+/+Lepr^db/J (Charles River Laboratories) male mice (commonly referred to as db/db mice) are deficient in the […] due a spontaneous point mutation. They are maintained on the C57BL6/J strain.
Mice are housed four by cage at a temperature of 22-24° C. and a day/night cycle of […] (05:00-19:00-05:00), and obtain standard chow and tap water ad libitum. Mice are allowed to adapt to housing and environment for 14 days prior to substance administration.
Compound suspensions in 0.3% Methylcellulose in saline are prepared freshly just prior to administration.
Substances will be administered by oral gavage in the morning at 07:00, one hour before determining fed blood glucose levels and body weight. In the evening, substance is administered between 17:00 and 18:00. Animals are visually monitored for 1 hour after the administrations.
Dosing is chosen based on the results of pharmacokinetic (PK) and dose tolerability studies. […]
Animals are being supplied one week in advance to allow for adaptation to housing and environment. During that time, body weight and fed blood glucose are measured daily. […]
Bodyweight and bloodglucose were measured three times a week. At the end of the study pancreatic insulin content and plasma parameters were determined.

SMILES: Nc1ncnc2n[nH]c(Nc3ccc(F)cc3)c12 [CGP57380]
- phosphorylated eIF4E [1]: strong reduction

SMILES: NC(=O)c1ccc(Nc2ncnc3ccsc23)c(OC2CCOC2)c1 (stereo not drawn) [Compound 15, 3-(Tetrahydrofuran-3-yloxy)-4-(thieno[3,2-d]pyrimidin-4-ylamino)-benzamide]
- random fed blood glucose (db/db mice; during the 14 day study, FIG. 2): progressive improvement

SMILES: CN(CCOc1ccc(CC2SC(=O)NC2=O)cc1)c1ccccn1 (stereo not drawn) [Rosiglitazone]
- body weight compared to vehicle (db/db mice; d1 to d14, FIG. 1): significant increased in body weight
